Like-named read-outs stand apart in the source and are kept apart here.
What was measured:
Assay type in all cases: in vivo
Lolium rigidum (LOLRI) = test: Post-emergence action against weeds, greenhouse pot test, visual rating: Lolium rigidum; conditions: for pest or weed control at 0.4 g/ha / pest or weed control at […]: Lolium rigidum, 504 h, 21 DAT, read-out: Herbicidal effect [%] on LOLRI 21 DAT
[1] = tested on: Pharbitis purpurea (PHBPU); test: Post-emergence action against weeds, greenhouse pot test, visual rating: Pharbitis purpurea; conditions: 0.4 g a.i./ha
Centaurea cyanus (CENCY) [2] = test: Post-emergence action against weeds, greenhouse pot test, visual rating: Centaurea cyanus; conditions: 240 h, read-out: Herbicidal effect [%] on CENCY 10 DAT
Avena fatua (AVEFA) = test: Post-emergence action against weeds, greenhouse pot test, visual rating: Avena fatua; conditions: for pest or weed control at […]: Avena fatua, 240 h, 10 DAT, read-out: Herbicidal effect [%] on AVEFA 10 DAT
Eleusine indica (ELEIN) = test: Post-emergence action against weeds, greenhouse pot test, visual rating: Eleusine indica; conditions: for pest or weed control at 0.4 g/ha / pest or weed control at […]: Eleusine indica, post-emergence
Procedure: (§1) When the observed efficacies already exceed the formal sum total of the values of the tests with individual applications, they also exceed the expected value according to Colby, which is calculated using the formula below and is likewise regarded as an indication of synergism (cf. S. R. Colby; in Weeds 15 (1967) pp. 20 to 22):
(§2) where: • A=efficacy of the active ingredient (A) in % at an application rate of a [g a.i./ha]; • B=efficacy of the active ingredient (B) in % at an application rate of b [g a.i./ha]; • E^C=expected value of the effect of the combination (A)+(B) in % at the combined application rate a+b [g a.i./ha].
(§3) The observed values (E^A) from the experiments, given suitable low dosages, show an effect of the combinations exceeding the expected values according to Colby (E^C) (Δ).
(§4) Seeds of mono- and dicotyledonous weeds were placed in sandy loam in pots, covered with soil and grown in a greenhouse under good growth conditions (temperature, air humidity, water supply). Two to three weeks after sowing, the test plants were treated at the two- to four-leaf stage with the compositions of the invention. The compositions of the invention, formulated as spray powders or as emulsion concentrates, were sprayed onto the green parts of the plant in various dosages with an application rate equivalent to […] of water. After the test plants had been kept in the greenhouse under optimum growth conditions for 3 weeks, the activity of the preparations was rated visually in comparison to untreated controls.
(§5) 100% efficacy means complete control of the particular weed tested.
(§6) 0% efficacy means zero control of the particular weed tested.
(§7) Expected values according to Colby are reported under E.
(§8) The exceedance of the expected value E is given as Δ (=synergistic effect).
(§9) The rating period is reported in days after application (DAT).

Kochia scoparia (KCHSC) = test: Post-emergence action against weeds, greenhouse pot test, visual rating: Kochia scoparia; conditions: for pest or weed control at 0.4 g/ha / pest or weed control at […]: Bassia scoparia, post-emergence, 504 h, read-out: Herbicidal effect [%] on KCHSC 21 DAT
Centaurea cyanus (CENCY) [3] = test: Post-emergence action against weeds, greenhouse pot test, visual rating: Centaurea cyanus
Procedure: as §1, §2, §3, §4, §5, §6, §7, §8, §9

[4] = tested on: Sorghum halepense (SORHA); test: Post-emergence action against weeds, greenhouse pot test, visual rating: Sorghum halepense
Procedure: as §1, §2, §3, §4, §5, §6, §7, §8, §9

[5] = tested on: Pharbitis purpurea (PHBPU); test: Post-emergence action against weeds, greenhouse pot test, visual rating: Pharbitis purpurea
Procedure: as §1, §2, §3, §4, §5, §6, §7, §8, §9

Bidens pilosa (BIDPI) = test: Post-emergence action against weeds, greenhouse pot test, visual rating: Bidens pilosa
[6] = tested on: Echinochloa crus-galli (ECHCG); test: Post-emergence action against weeds, greenhouse pot test, visual rating: Echinochloa crus-galli
[7] = tested on: Brachiaria platyfylla (BRAPP); test: Post-emergence action against weeds, greenhouse pot test, visual rating: Brachiaria platyfylla; conditions: for pest or weed control at […] / pest or weed control at 0.4 g/ha: post-emergence
Procedure: as §1, §2, §3, §4, §5, §6, §7, §8, §9

[8] = 504 h, 0.4 g a.i./ha, read-out: Herbicidal effect [%] on ELEIN 21 DAT

SMILES: C=C[C@]1(C(=O)N[C@H]2CO[C@@H](C(=O)OC)C2)CC(c2cc(F)cc(F)c2)=NO1 (relative stereo) [Icafolin-methyl, methyl rel-(2R,4R)-4-[[(5S)-3-(3,5-difluorophenyl)-5-vinyl-4H-isoxazole-5-carbonyl]amino]tetrahydrofuran-2-carboxylate]
- Herbicidal effect [%] on LOLRI 10 DAT (Lolium rigidum (LOLRI); 0.4 g a.i./ha): 10%
- pest or weed control at 0.4 g/ha (Lolium rigidum (LOLRI); 0.4 g a.i./ha): 0%
- Herbicidal effect [%] on PHBPU 10 DAT [1]: 0%
- pest or weed control at 0.4 g/ha (Centaurea cyanus (CENCY) [2]; 0.4 g a.i./ha): 0%
- Herbicidal effect [%] on AVEFA 21 DAT (Avena fatua (AVEFA); 0.4 g a.i./ha): 10%
- pest or weed control at 0.4 g/ha (Eleusine indica (ELEIN); [8]): 0%
- pest or weed control at 0.4 g/ha (Kochia scoparia (KCHSC); 0.4 g a.i./ha): 0%

SMILES: CCOC(=O)COc1ncccc1Oc1cc(-n2c(=O)cc(C(C)(F)F)n(C)c2=O)c(F)cc1Cl [Compound A1, ethyl [(3-{2-chloro-5-[4-(1,1-difluoroethyl)-3-methyl-2,6-dioxo-3,6-dihydropyrimidin-1(2H)-yl]-4-fluorophenoxy}pyridin-2-yl)oxy]acetate]
- Herbicidal effect [%] on CENCY 21 DAT (Centaurea cyanus (CENCY) [3]; 0.15 g a.i./ha): 15%
- Herbicidal effect [%] on CENCY 21 DAT (Centaurea cyanus (CENCY) [3]; 0.45 g a.i./ha): 20%
- Herbicidal effect [%] on LOLRI 10 DAT (Lolium rigidum (LOLRI); 0.15 g a.i./ha): 10%
- Herbicidal effect [%] on LOLRI 10 DAT (Lolium rigidum (LOLRI); 0.45 g a.i./ha): 15%
- pest or weed control at […] (Lolium rigidum (LOLRI); 0.15 g a.i./ha): 5%
- pest or weed control at […] (Lolium rigidum (LOLRI); 0.45 g a.i./ha): 5%
- Herbicidal effect [%] on SORHA 10 DAT ([4]; 0.15 g a.i./ha): 47.5%
- Herbicidal effect [%] on SORHA 21 DAT ([4]; 0.15 g a.i./ha): 49%
- Herbicidal effect [%] on SORHA 10 DAT ([4]; 0.45 g a.i./ha): 45%
- Herbicidal effect [%] on SORHA 21 DAT ([4]; 0.45 g a.i./ha): 40%
- Herbicidal effect [%] on PHBPU 10 DAT ([5]; 0.15 g a.i./ha): 20%
- Herbicidal effect [%] on PHBPU 21 DAT ([5]; 0.15 g a.i./ha): 20%
- Herbicidal effect [%] on PHBPU 10 DAT ([5]; 0.45 g a.i./ha): 77.5%
- Herbicidal effect [%] on PHBPU 21 DAT ([5]; 0.45 g a.i./ha): 50%
- pest or weed control at […] (Centaurea cyanus (CENCY) [2]; 0.15 g a.i./ha): 15%
- pest or weed control at […] (Centaurea cyanus (CENCY) [2]; 0.45 g a.i./ha): 40%
- Herbicidal effect [%] on AVEFA 21 DAT (Avena fatua (AVEFA); 0.15 g a.i./ha): 10%
- Herbicidal effect [%] on AVEFA 21 DAT (Avena fatua (AVEFA); 0.45 g a.i./ha): 20%
- pest or weed control at […] (Avena fatua (AVEFA); 0.15 g a.i./ha): 5%
- pest or weed control at […] (Avena fatua (AVEFA); 0.45 g a.i./ha): 20%
- pest or weed control at […] (Eleusine indica (ELEIN); 240 h, 0.15 g a.i./ha, read-out: Herbicidal effect [%] on ELEIN 10 DAT): 10%
- pest or weed control at […] (Eleusine indica (ELEIN); 240 h, 0.45 g a.i./ha, read-out: Herbicidal effect [%] on ELEIN 10 DAT): 35%
- pest or weed control at […] (Eleusine indica (ELEIN); 504 h, 0.15 g a.i./ha, read-out: Herbicidal effect [%] on ELEIN 21 DAT): 5%
- pest or weed control at […] (Eleusine indica (ELEIN); 504 h, 0.45 g a.i./ha, read-out: Herbicidal effect [%] on ELEIN 21 DAT): 5%
- Herbicidal effect [%] on BIDPI 10 DAT (Bidens pilosa (BIDPI); 0.15 g a.i./ha): 20%
- Herbicidal effect [%] on BIDPI 21 DAT (Bidens pilosa (BIDPI); 0.15 g a.i./ha): 10%
- Herbicidal effect [%] on BIDPI 10 DAT (Bidens pilosa (BIDPI); 0.45 g a.i./ha): 57.5%
- Herbicidal effect [%] on BIDPI 21 DAT (Bidens pilosa (BIDPI); 0.45 g a.i./ha): 30%
- Herbicidal effect [%] on ECHCG 10 DAT ([6]; 0.15 g a.i./ha): 10%
- Herbicidal effect [%] on ECHCG 21 DAT ([6]; 0.15 g a.i./ha): 10%
- Herbicidal effect [%] on ECHCG 10 DAT ([6]; 0.45 g a.i./ha): 25%
- Herbicidal effect [%] on ECHCG 21 DAT ([6]; 0.45 g a.i./ha): 20%
- pest or weed control at […] ([7]; 240 h, 0.15 g a.i./ha, read-out: Herbicidal effect [%] on BRAPP 10 DAT): 30%
- pest or weed control at […] ([7]; 240 h, 0.45 g a.i./ha, read-out: Herbicidal effect [%] on BRAPP 10 DAT): 45%
- pest or weed control at […] ([7]; 504 h, 0.15 g a.i./ha, read-out: Herbicidal effect [%] on BRAPP 21 DAT): 0%
- pest or weed control at […] ([7]; 504 h, 0.45 g a.i./ha, read-out: Herbicidal effect [%] on BRAPP 21 DAT): 0%
- Herbicidal effect [%] on KCHSC 10 DAT (Kochia scoparia (KCHSC); 0.15 g a.i./ha): 5%
- Herbicidal effect [%] on KCHSC 10 DAT (Kochia scoparia (KCHSC); 0.45 g a.i./ha): 25%
- pest or weed control at […] (Kochia scoparia (KCHSC); 0.15 g a.i./ha): 0%
- pest or weed control at […] (Kochia scoparia (KCHSC); 0.45 g a.i./ha): 5%

SMILES: C#CCN1C(=O)COc2cc(F)c(N3C(=O)C4=C(CCCC4)C3=O)cc21 [Flumioxazin, flumioxazin]
- pest or weed control at 0.4 g/ha (Lolium rigidum (LOLRI); 0.4 g a.i./ha): 0%
- Herbicidal effect [%] on PHBPU 10 DAT [1]: 50%
- Herbicidal effect [%] on PHBPU 21 DAT ([5]; 0.4 g a.i./ha): 30%
- pest or weed control at 0.4 g/ha (Eleusine indica (ELEIN); 240 h, 0.4 g a.i./ha, read-out: Herbicidal effect [%] on ELEIN 10 DAT): 30%
- pest or weed control at 0.4 g/ha (Eleusine indica (ELEIN); [8]): 0%
- pest or weed control at 0.4 g/ha ([7]; 240 h, 0.4 g a.i./ha, read-out: Herbicidal effect [%] on BRAPP 10 DAT): 30%
- pest or weed control at 0.4 g/ha ([7]; 504 h, 0.4 g a.i./ha, read-out: Herbicidal effect [%] on BRAPP 21 DAT): 10%
- Herbicidal effect [%] on KCHSC 10 DAT (Kochia scoparia (KCHSC); 0.4 g a.i./ha): 30%
- pest or weed control at 0.4 g/ha (Kochia scoparia (KCHSC); 0.4 g a.i./ha): 10%

SMILES: C#CCN1C(=O)C(F)(F)Oc2cc(F)c(-n3c(=O)n(C)c(=S)n(C)c3=O)cc21 [Trifludimoxazin, trifludimoxazin]
- Herbicidal effect [%] on CENCY 10 DAT (Centaurea cyanus (CENCY) [3]; 0.4 g a.i./ha): 30%
- Herbicidal effect [%] on LOLRI 10 DAT (Lolium rigidum (LOLRI); 0.4 g a.i./ha): 20%
- Herbicidal effect [%] on PHBPU 10 DAT [1]: 80%
- Herbicidal effect [%] on PHBPU 21 DAT ([5]; 0.4 g a.i./ha): 40%
- Herbicidal effect [%] on ELEIN 10 DAT (Eleusine indica (ELEIN); 0.4 g a.i./ha): 70%
- Herbicidal effect [%] on ELEIN 21 DAT (Eleusine indica (ELEIN); 0.4 g a.i./ha): 20%
- Herbicidal effect [%] on BIDPI 10 DAT (Bidens pilosa (BIDPI); 0.4 g a.i./ha): 60%
- Herbicidal effect [%] on BIDPI 21 DAT (Bidens pilosa (BIDPI); 0.4 g a.i./ha): 60%
- Herbicidal effect [%] on BRAPP 10 DAT ([7]; 0.4 g a.i./ha): 40%
- Herbicidal effect [%] on BRAPP 21 DAT ([7]; 0.4 g a.i./ha): 0%
- Herbicidal effect [%] on KCHSC 10 DAT (Kochia scoparia (KCHSC); 0.4 g a.i./ha): 85%
- Herbicidal effect [%] on KCHSC 21 DAT (Kochia scoparia (KCHSC); 0.4 g a.i./ha): 60%

— US20260271931A1, “HERBICIDAL MIXTURES” (Bayer Aktiengesellschaft, priority 2023, published 2026)
